Source: the supplement of paper PMC11451515

How the values were obtained:
Conditions in all cases: 48 h
[1] = tested on: P12-Ichikawa; experiment: AUC of viability dose-response curve (% viability x log10 dose units); higher = less sensitive
Summary of the method: (§1)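 Leukemia cells adapted to each medium were seeded in 1536-well plates (500 or 1000 cells/well) and given library compounds in DMSO for 48 h at 37°C. The 11 threefold doses spanned 47 μM to 0.79 nM, and CellTiter-Glo One luminescence was normalised per plate to DMSO and cell-free wells before four-parameter log-logistic fitting on log10 dose. Area under the curve was integrated with the trapezoidal rule, scaling curves above full viability and removing curves that failed quality control.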

[2] = tested on: NOMO1; experiment: as above
Summary of the method: as §1

[3] = tested on: SEM cells; experiment: as above
Summary of the method: as §1

[4] = tested on: P12-Ichikawa; experiment: cell viability relative to DMSO control; higher = less cytotoxic
Summary of the method: (§2)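 Viability was expressed as a per-plate percentage of DMSO wells, with cell-free wells as background. Leukemia cells (NOMO1 or SEM at 500 cells/well, P12-Ichikawa at 1000 cells/well) were adapted for at least four passages in each medium and seeded in 1536-well plates (5 μl). Library compounds in DMSO were pin-dosed over an 11-point threefold series from 47 μM to 0.79 nM, and CellTiter-Glo One luminescence was read after 48 h at 37°C.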

[5] = tested on: NOMO1; experiment: as above
Summary of the method: as §2

[6] = tested on: SEM cells; experiment: as above
Summary of the method: as §2

Cc1cn([C@H]2C=C[C@@H](CO)O2)c(=O)[nH]c1=O
AUC of viability dose-response curve
Conditions	[1]	[2]	[3]
HPLM + 10% dialyzed FBS	468	474	465
RPMI 5 mM glucose + 10% FBS	475	435	450
RPMI 5 mM glucose + 10% dialyzed FBS	474	453	469

cell viability [%]
Conditions	[4]	[5]	[6]
HPLM + 10% dialyzed FBS, 0.000781 µM	104	105	88.9
HPLM + 10% dialyzed FBS, 0.00234 µM	114	101	106
HPLM + 10% dialyzed FBS, 0.00702 µM	108	116	104
HPLM + 10% dialyzed FBS, 0.0211 µM	108	123	124
HPLM + 10% dialyzed FBS, 0.0632 µM	112	101	114
HPLM + 10% dialyzed FBS, 0.19 µM	103	114	99.6
HPLM + 10% dialyzed FBS, 0.569 µM	119	125	109
HPLM + 10% dialyzed FBS, 1.71 µM	103	115	130
HPLM + 10% dialyzed FBS, 5.12 µM	115	96.4	127
HPLM + 10% dialyzed FBS, 15.4 µM	116	108	112
HPLM + 10% dialyzed FBS, 46.1 µM	108	107	103
RPMI 5 mM glucose + 10% FBS, 0.000781 µM	100	88.6	89.5
RPMI 5 mM glucose + 10% FBS, 0.00234 µM	111	94.3	110
RPMI 5 mM glucose + 10% FBS, 0.00702 µM	107	100	109
RPMI 5 mM glucose + 10% FBS, 0.0211 µM	108	106	108
RPMI 5 mM glucose + 10% FBS, 0.0632 µM	105	98.7	110
RPMI 5 mM glucose + 10% FBS, 0.19 µM	104	111	107
RPMI 5 mM glucose + 10% FBS, 0.569 µM	112	111	117
RPMI 5 mM glucose + 10% FBS, 1.71 µM	115	102	110
RPMI 5 mM glucose + 10% FBS, 5.12 µM	108	116	104
RPMI 5 mM glucose + 10% FBS, 15.4 µM	110	120	126
RPMI 5 mM glucose + 10% FBS, 46.1 µM	98	115	106
RPMI 5 mM glucose + 10% dialyzed FBS, 0.000781 µM	99.4	106	91.2
RPMI 5 mM glucose + 10% dialyzed FBS, 0.00234 µM	101	124	93.9
RPMI 5 mM glucose + 10% dialyzed FBS, 0.00702 µM	110	118	104
RPMI 5 mM glucose + 10% dialyzed FBS, 0.0211 µM	105	112	112
RPMI 5 mM glucose + 10% dialyzed FBS, 0.0632 µM	103	125	118
RPMI 5 mM glucose + 10% dialyzed FBS, 0.19 µM	101	123	96.4
RPMI 5 mM glucose + 10% dialyzed FBS, 0.569 µM	112	122	107
RPMI 5 mM glucose + 10% dialyzed FBS, 1.71 µM	108	121	125
RPMI 5 mM glucose + 10% dialyzed FBS, 5.12 µM	99.2	113	116
RPMI 5 mM glucose + 10% dialyzed FBS, 15.4 µM	107	129	104
RPMI 5 mM glucose + 10% dialyzed FBS, 46.1 µM	92.8	131	74.2
